Test results as given in patent US4698350A, “1-ethyl-6-fluoro-1,4-dihydro- 7-(2,6-dimethyl-4-pyridinyl)-4-oxo-3-quinolinecarboxylic acid and antibacterial use thereof” (Sterling Drug Inc., priority 1984, dated 1987).
≈ marks a conversion by molar mass, not a printed value. Where two headings read alike, the source gives them in different places.

Experiments:
Type in all cases: cell-based
B. fragilis = test: Agar dilution MIC, anaerobic microorganisms; settings: Bacteroides fragilis, 48 h; B. fragilis; read-out: MIC
Protocol: (§1) 1. Maintenance. Prior to use, all strains were maintained in the lyophilized state. During the study, cultures were examined on blood agar basal medium supplemented with 5.0% (v/v) defibrinated rabbit blood. Culture transfer was accomplished weekly with all cultures being incubated in an anaerobic atmosphere (GasPak jar; BBL).
(§2) 2. Agar Medium. The basal test medium consisted of trypticase soy agar (40 g), yeast extract (1 g), glucose (2 g) and 960 ml of distilled water pH 7.2. [Mashimo et al., J. Clin. Micro. 17, 187-191 (1983)]. Subsequent to sterilization and cooling to 50° C., the medium was supplemented with 4% (v/v) defibrinated rabbit blood and 0.5 μg/ml menadione (Vitamin K3) The agent under evaluation was also added at this time to the concentration desired. Subsequent to pouring of the plates, they were permitted to dry at 4° C. for 24 hr.
(§3) 3. Determination of Agent MIC. The minimal inhibitory concentration (MIC) of the various test agents was determined using an agar dilution technique. Agents and appropriate reference compounds were added to achieve a series of concentrations ranging between 32 μg/ml and 0.007 μg/ml. The inocula were prepared from 96-hr. cultures grown on the maintenance medium. Subsequent to a purity evaluation, colonies were removed and suspended in trypticase soy broth supplemented with 5 μg/ml menadione and 2% lysed rabbit blood filtrate to achieve an OD650 of 0.1 (this corresponded to approximately 10^8 cells/ml). Cultures were inoculated aerobically on the modified trypticase soy blood agar plates by use of a Steer's replicator (which delivers about 10^5 cells per spot). The plates were allowed to dry for a time not exceeding 30 min. and then incubated at 37° C. under an atmosphere of […], 10% H2 and 5% CO2 maintained in an anaerobic chamber (Coy Manufacturing Co.) for 48 hr. The MIC was defined as the lowest concentration completely inhibiting growth.
(§4) Tetracycline stock solutions (1 mg/ml) were made subsequent to dissolution in water. Stock solutions (1 mg/ml) of the remaining test compounds were made subsequent to dissolution in 1/10 N NaOH.

B. oralis = test: Agar dilution MIC, anaerobic microorganisms; settings: Hoylesella oralis, 48 h; B. oralis; read-out: MIC
Protocol: as §1, §2, §3, §4

B. intermedius = test: Agar dilution MIC, anaerobic microorganisms; settings: Prevotella intermedia, 48 h; B. intermedius; read-out: MIC
Protocol: as §1, §2, §3, §4

B. melaninogenicus = test: Agar dilution MIC, anaerobic microorganisms; settings: 48 h; B. melaninogenicus; read-out: MIC
Protocol: as §1, §2, §3, §4

A. actinomycetemcomitans = test: Agar dilution MIC, anaerobic microorganisms; settings: Aggregatibacter actinomycetemcomitans, 48 h; A. actinomycetemcomitans; read-out: MIC
Protocol: as §1, §2, §3, §4

E. coli = test: In vitro MIC/MBC summary (Table II); settings: Escherichia coli, 5 E. coli strains
Method in brief: (§5)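 Values are the lowest concentrations inhibiting visible growth (MIC) or preventing colony formation after subculture to agar (MBC). Bacteria at ~1×10^5 cells/ml were incubated with two-fold compound dilutions in MHB, or BHI+1% NHS for streptococci, at 37° C. for 18-20 hours.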

E. coli AH719 = test: In vitro antibacterial MIC/MBC test; settings: Escherichia coli
Method in brief: as §5

E. coli (8739) = test: In vitro antibacterial MIC/MBC test; settings: Escherichia coli, ATCC8739; E. coli ATCC No. 8739
Method in brief: as §5

E. coli 198 = test: In vitro antibacterial MIC/MBC test; settings: Escherichia coli
Method in brief: as §5

P. aeruginosa (9027) = test: In vitro antibacterial MIC/MBC test; settings: Pseudomonas aeruginosa, ATCC9027; P. aeruginosa ATCC No. 9027
Method in brief: as §5

E. coli 2350 = test: In vitro antibacterial MIC/MBC test; settings: Escherichia coli
Method in brief: as §5

P. aeruginosa (7700) = test: In vitro antibacterial MIC/MBC test; settings: Pseudomonas aeruginosa, ATCC7700; P. aeruginosa ATCC No. 7700
Method in brief: as §5

E. coli Vogel = test: In vitro antibacterial MIC/MBC test; settings: Escherichia coli
Method in brief: as §5

P. aeruginosa (15442) = test: In vitro antibacterial MIC/MBC test; settings: Pseudomonas aeruginosa, ATCC15442; P. aeruginosa ATCC No. 15442
Method in brief: as §5

P. aeruginosa (27853) = test: In vitro antibacterial MIC/MBC test; settings: Pseudomonas aeruginosa, ATCC27853; P. aeruginosa ATCC No. 27853
Method in brief: as §5

P. aeruginosa MGH-2 = test: In vitro antibacterial MIC/MBC test; settings: Pseudomonas aeruginosa, MGH2
Method in brief: as §5

CCn1cc(C(=O)O)c(=O)c2ccc(-c3cc(C)nc(C)c3)cc21 [Win 35,439, 1-ethyl-1,4-dihydro-7-(2,6-dimethyl-4-pyridinyl)-4-oxo-3-quinolinecarboxylic acid]
MIC (B. fragilis): > 10 µg/mL | MIC (B. oralis): > 10 µg/mL | MIC (B. intermedius): 0.25 µg/mL (≈ 0.776 µM) | MIC (B. melaninogenicus): 8 µg/mL (≈ 24.8 µM) | MIC (A. actinomycetemcomitans): 0.25 µg/mL (≈ 0.776 µM) | MIC (E. coli): 0.5 to 2 µg/mL (≈ 1.55 to 6.2 µM) | MIC50 (E. coli): 0.5 µg/mL (≈ 1.55 µM) | MIC90 (E. coli): 2 µg/mL (≈ 6.2 µM) | MBC (E. coli; read-out: MBC 50%): 0.5 µg/mL (≈ 1.55 µM) | MBC (E. coli; read-out: MBC Range): 0.5 to 2 µg/mL (≈ 1.55 to 6.2 µM) | MBC (E. coli AH719): 0.5 µg/mL (≈ 1.55 µM) | MIC (E. coli AH719): 0.5 µg/mL (≈ 1.55 µM) | MBC (E. coli (8739)): 0.5 µg/mL (≈ 1.55 µM) | MIC (E. coli (8739)): 0.5 µg/mL (≈ 1.55 µM) | MBC (E. coli 198): 2 µg/mL (≈ 6.2 µM) | MIC (E. coli 198): 2 µg/mL (≈ 6.2 µM) | MBC (P. aeruginosa (9027)): > 16 µg/mL | MIC (P. aeruginosa (9027)): 8 µg/mL (≈ 24.8 µM) | MBC (E. coli 2350): 0.5 µg/mL (≈ 1.55 µM) | MIC (E. coli 2350): 0.5 µg/mL (≈ 1.55 µM) | MBC (P. aeruginosa (7700)): > 16 µg/mL | MIC (P. aeruginosa (7700)): 16 µg/mL (≈ 49.6 µM) | MBC (E. coli Vogel): 2 µg/mL (≈ 6.2 µM) | MIC (E. coli Vogel): 2 µg/mL (≈ 6.2 µM) | MBC (P. aeruginosa (15442)): > 16 µg/mL | MIC (P. aeruginosa (15442)): > 16 µg/mL | MBC (P. aeruginosa (27853)): > 16 µg/mL | MIC (P. aeruginosa (27853)): 16 µg/mL (≈ 49.6 µM) | MBC (P. aeruginosa MGH-2): 16 µg/mL (≈ 49.6 µM) | MIC (P. aeruginosa MGH-2): 8 µg/mL (≈ 24.8 µM)

CCn1cc(C(=O)O)c(=O)c2cc(F)c(-c3cc(C)nc(C)c3)cc21 [Win 52,522, 1-ethyl-6-fluoro-1,4-dihydro-7-(2,6-dimethyl-4-pyridinyl)-4-oxo-3-quinolinecarboxylic acid]
MIC (B. fragilis): 4 µg/mL (≈ 11.8 µM) | MIC (B. oralis): 4 µg/mL (≈ 11.8 µM) | MIC (B. intermedius): 0.06 µg/mL (≈ 0.176 µM) | MIC (B. melaninogenicus): 1 µg/mL (≈ 2.94 µM) | MIC (A. actinomycetemcomitans): 0.12 µg/mL (≈ 0.353 µM) | MIC (E. coli): 0.25 to 0.5 µg/mL (≈ 0.735 to 1.47 µM) | MIC50 (E. coli): 0.25 µg/mL (≈ 0.735 µM) | MIC90 (E. coli): 0.25 µg/mL (≈ 0.735 µM) | MBC (E. coli; read-out: MBC 50%): 0.25 µg/mL (≈ 0.735 µM) | MBC (E. coli; read-out: MBC Range): 0.25 to 0.5 µg/mL (≈ 0.735 to 1.47 µM) | MBC (E. coli AH719): 0.25 µg/mL (≈ 0.735 µM) | MIC (E. coli AH719): 0.25 µg/mL (≈ 0.735 µM) | MBC (E. coli (8739)): 0.25 µg/mL (≈ 0.735 µM) | MIC (E. coli (8739)): 0.25 µg/mL (≈ 0.735 µM) | MBC (E. coli 198): 0.5 µg/mL (≈ 1.47 µM) | MIC (E. coli 198): 0.5 µg/mL (≈ 1.47 µM) | MBC (P. aeruginosa (9027)): 16 µg/mL (≈ 47 µM) | MIC (P. aeruginosa (9027)): 4 µg/mL (≈ 11.8 µM) | MBC (E. coli 2350): 0.25 µg/mL (≈ 0.735 µM) | MIC (E. coli 2350): 0.25 µg/mL (≈ 0.735 µM) | MBC (P. aeruginosa (7700)): 16 µg/mL (≈ 47 µM) | MIC (P. aeruginosa (7700)): 16 µg/mL (≈ 47 µM) | MBC (E. coli Vogel): 0.5 µg/mL (≈ 1.47 µM) | MIC (E. coli Vogel): 0.25 µg/mL (≈ 0.735 µM) | MBC (P. aeruginosa (15442)): 16 µg/mL (≈ 47 µM) | MIC (P. aeruginosa (15442)): 16 µg/mL (≈ 47 µM) | MBC (P. aeruginosa (27853)): 16 µg/mL (≈ 47 µM) | MIC (P. aeruginosa (27853)): 16 µg/mL (≈ 47 µM) | MBC (P. aeruginosa MGH-2): 16 µg/mL (≈ 47 µM) | MIC (P. aeruginosa MGH-2): 16 µg/mL (≈ 47 µM)
